What is called IC50 is the point on the concentration scale where inhibition reaches its midpoint. A word on the inhibition: it is the share of the control response that was lost under treatment.

Like-named read-outs stand apart in the source and are kept apart here.

In data set [1] the test system is normal liver cells immortalized MIHA. Kind of data set: MTT cytotoxicity assay on normal liver cells immortalized MIHA. The format is cell-based, human. As to conditions: for Survival rate (%): MTT, 72 h. On the procedure:
The cytotoxicity of Compound A to normal liver cells immortalized MIHA is tested with MTT assay.
For MTT assay, 10 μL MTT solution is added into each well of a 96-well plate. After 2 h incubation at 37° C., 100 μL 10% SDS solution with 10 mM HCl is added to dissolve the purple crystals. After 24 h incubation, the optical density (OD) readings at 595 nm are measured using a Perkin-Elmer Victor plate reader. The values of IC50 are determined using the method described in the cited literatures with some modifications. To determine the IC50 value of a compound in a cell line, the growth inhibitory effect of Compound A at different concentrations is measured by MTT assay. For each tested concentration, 3000 cells suspended in 100 μL culture medium are seeded in each well of a 96-well plate. The well containing 100 μL culture medium without cells is used as a blank. After an overnight culture, Compound A at the designed concentration is added. The OD values of the control group at 0 h (C0) and 72 h (C72) together with the compound treated groups at 72 h (T72) from the MTT assay are measured using the Perkin-Elmer Victor plate reader. The survival rates are calculated using the formula (T72−C0)/(C72−C0)×100%. The inhibition rates are calculated using the following formula [1−(T72−C0)/(C72−C0)]×100% and plotted against logarithmic concentrations by sigmoidal fit. IC50 is defined as the concentration of a compound inhibiting 50% of cell growth. Each IC50 test is performed in triplicate and repeated at least three times.
(Tetrazolium assays rely on reduction of a dye to a coloured formazan, in cell work by metabolically active cells.)

In data set [2] the test system is HepG2. Kind of data set: MTT cell viability assay, HepG2. The format is cell-based. As to conditions: Homo sapiens; for IC50: HepG2, MTT. The text has this: (§1) Curcumin and paclitaxel are used as the positive control.
Data set [3] has as its system U87. Kind of data set: MTT cell viability assay, U87. As to conditions: Homo sapiens, U-87 MG, 72 h, read-out: Cytotoxicity Data IC50 (μM).
Experimental: (§2) All test samples are dissolved in dimethyl sulfoxide (DMSO) to make stock solutions and further diluted in culture medium upon assay. Human cancer cell lines including U87, MDA-MB-231, AGS and HepG2 are cultured in RPMI 1640 or DMEM or DMEM/F12 medium, containing 10% fetal bovine serum. All cell lines are maintained at 37° C. in a humidified environment containing 5% CO2. To determine the effects of the compounds on cell viability, cell number is quantified using a standard colorimetric MTT assay. Cells are placed in a 96-well plate (5×10^3 cells/well) and allowed to attach overnight. Cells are treated with 5, 10, 20, 40 μM of each compound in culture medium for 72 h, respectively. Then, culture media are added with 20 μL of MTT (5 mg/mL stock in PBS) per well and incubated for 4 h at 37° C. Finally, culture media are discarded and 150 μL of DMSO is added to each well to dissolve the purple formazan crystals. Absorbance of the solution is measured using microplate reader spectrophotometer (Bio-Rad Laboratories, Inc., Hercules, Calif.), at a wavelength of 490 nm. Absorbance of untreated cells in medium (negative control) is 100%. Curcumin and paclitaxel are used as the positive control.
Data set [4] relates to MDA-MB-231. Description: MTT cell viability assay, MDA-MB-231. As to conditions: Homo sapiens; MDA-MB-231, MTT, 72 h; read-out: Cytotoxicity Data IC50. The format is cell-based.
From the text: as §1

In data set [5] the test system is AGS. Kind of data set: MTT cell viability assay, AGS. Conditions: Homo sapiens, 72 h, read-out: Cytotoxicity Data IC50 (μM).
Experimental: as §2

Turning to `COc1c(O)c(O)c2c(=O)c3c(CC=C(C)C)c(CC=C(C)C)c(O)c(O)c3oc2c1CC=C(C)C` [Compound A, 1,2,5,6-tetrahydroxy-3-methoxy-4,7,8-tri(3-methylbut-2-enyl)-xanthone], the “Survival rate (%)” value came to 101.7881% in data set [1] (compound A 5 μg/mL), 85.45% in data set [1] (compound A 10 μg/mL), 85.89% in data set [1] (compound A 20 μg/mL) and 68.01% in data set [1] (compound A 40 μg/mL). The “half toxic concentration TC50” value in data set [1] (from survival rate curve (FIG. 1)) was greater than 40 µg/mL. Besides, in data set [1] (result in words), the “toxicity on normal cells” value was “low toxicity”. Besides, in data set [2] (read-out: IC50 on HepG2 cells growth), the IC50 is 5.3 µg/mL. For the same compound, in data set [2] (HepG2, compound A 0.8 μg/mL, MTT, read-out: Inhibition rate %), the inhibition at 0.8 µg/mL stood at 7.79%. Moreover, the inhibition at 1.6 µg/mL in data set [2] (HepG2, compound A 1.6 μg/mL, MTT, read-out: Inhibition rate %) stood at 8.16%. Also, the inhibition at 3.125 µg/mL in data set [2] (HepG2, compound A 3.125 μg/mL, MTT, read-out: Inhibition rate %) came to 15%. For the same compound, the inhibition at 6.25 µg/mL in data set [2] (HepG2, compound A 6.25 μg/mL, MTT, read-out: Inhibition rate %) came to 59.2%. The inhibition at 12.5 µg/mL in data set [2] (HepG2, compound A 12.5 μg/mL, MTT, read-out: Inhibition rate %) was determined as 75.6%. For the same compound, the inhibition at 25 µg/mL in data set [2] (HepG2, compound A 25 μg/mL, MTT, read-out: Inhibition rate %) is 76.6%. Also, the inhibition at 50 µg/mL in data set [2] (HepG2, compound A 50 μg/mL, MTT, read-out: Inhibition rate %) came out at 69.3%. For the same compound, the inhibition at 100 µg/mL in data set [2] (HepG2, compound A 100 μg/mL, MTT, read-out: Inhibition rate %) came out at 74.3%.
As for `COc1c(OC)c(O)c2c(=O)c3c(CC=C(C)C)c(CC=C(C)C)c(O)c(O)c3oc2c1CC=C(C)C` [Compound B], the IC50 in data set [3] came out at 55.3 µM; in data set [4] it was 70.5 µM; in data set [5] it was 31.1 µM; in data set [2] (72 h, read-out: Cytotoxicity Data IC50), 20.3 µM.
Consider `COc1cc(/C=C/C(=O)CC(=O)/C=C/c2ccc(O)c(OC)c2)ccc1O` [Curcumin], for which the IC50 amounted to 20.8 µM in data set [3], 3.76 µM in data set [4] and 4.38 µM in data set [5].
As for `CC(=O)O[C@H]1C(=O)[C@@]2(C)[C@H]([C@H](OC(=O)c3ccccc3)[C@]3(O)C[C@H](OC(=O)[C@H](O)[C@@H](NC(=O)c4ccccc4)c4ccccc4)C(C)=C1C3(C)C)[C@]1(OC(C)=O)CO[C@@H]1C[C@@H]2O` [Paclitaxel], the IC50 in data set [3] stood at 285 µM; in data set [5] it was 23.1 µM.
